“And” between values parts separate entries of the source, which are not always exact repeats. Identical values can stand only once.
Legend:
[1] = system: patients with major depressive disorder; experiment: Phase 2 randomized double-blind trial, dextromethorphan-bupropion (45 mg/105 mg tablet) vs bupropion (105 mg tablet), twice daily, 6 weeks (NCT03595579)
Method: This randomized, double-blind, multicenter, parallel-group trial evaluated dextromethorphan-bupropion versus the active comparator sustained-release bupropion in patients 18-65 years old with a diagnosis of major depressive disorder of moderate or greater severity. Patients were randomly assigned to receive either dextromethorphan-bupropion (45 mg/105 mg tablet) or bupropion (105 mg tablet), once daily for the first 3 days and twice daily thereafter, for a total of 6 weeks.
This was a 6-week randomized, double-blind, active-controlled phase 2 trial conducted at four sites in the United States from May 2018 to December 2018. The trial used bupropion, an approved antidepressant, as the control because it is a component of dextromethorphan-bupropion.
The clinical review utilized only documentation collected by the sites at screening and baseline, including a complete medical history and clinician- and patient-reported outcome measures (described below, under Efficacy Assessments). […] In order to reduce investigator expectation bias and therefore placebo response, sites were blinded to the primary efficacy variable and the presence of an independent assessor. Sites were provided a blinded protocol that presented the trial as a safety study with exploratory efficacy assessments. Detailed discussion of the efficacy analysis was limited to the statistical analysis plan, which was not provided to the sites.
The study evaluated patients 18-65 years of age with a confirmed diagnosis of major depressive disorder and a current major depressive episode of moderate or greater severity. The diagnosis was established using the DSM-5 criteria for major depressive disorder without psychotic features, based on the Structured Clinical Interview for DSM-5, Clinical Trials Version, and the site investigator's rating of a score ≥25 on the Montgomery-Åsberg Depression Rating Scale (MADRS) and a score ≥4 on the Clinical Global Impressions severity scale (CGI-S). Confirmation of the diagnosis of major depressive disorder and a current major depressive episode of moderate or greater severity was performed by a blinded independent assessor based on a clinical review prior to database lock and study unblinding.
The screening period was up to 4 weeks to allow for any needed taper and washout of prior medications.
Participants were randomized in a 1:1 ratio to receive oral treatment with either dextromethorphan-bupropion or sustained-release bupropion. In order to blind site investigators to the independent confirmation of diagnosis, all patients deemed eligible by the site investigators were randomized to receive study medication and were included in the safety population. As prespecified, patients whose diagnosis or severity was not confirmed by the independent assessor were excluded from the efficacy population.
Dextromethorphan-bupropion tablets and bupropion tablets were identical in appearance. The randomization schedule was computer generated using a permuted block algorithm that randomly allocated study drug to randomization numbers.
The double-blind treatment period was 6 weeks. Patients received their assigned study medication, dextromethorphan-bupropion (45 mg/105 mg tablet) or bupropion (105 mg tablet), once daily for the first 3 days and twice daily thereafter. The bupropion dosage in the control arm (210 mg daily) was selected to match the dosage incorporated in dextromethorphan-bupropion, enabling an appropriate comparison. During the treatment period, patients tracked their mood daily by completing a daily visual analogue mood scale. Study visits occurred 1, 2, 3, 4, and 6 weeks after the baseline visit. A safety follow-up visit occurred at week 7, 1 week after the last dose of study medication. There were no formal discontinuation criteria; patients were free to withdraw consent for any reason, and investigators were free to remove a patient from the study for any safety-related reason.

[2] = system: patients with depression; conditions: 150 mg/day or 300 mg/day, week 8; cited from earlier work
[3] = system: individuals with MDD; conditions: switch strategy; cited from earlier work
[4] = Pharmacokinetics of dextromethorphan, bupropion and metabolites after administration of the subject combination

CC(NC(C)(C)C)C(=O)c1cccc(Cl)c1 (racemic) [bupropion]
Adverse event leading to discontinuation of study drug, patients ([1]; human, in vivo, 6 weeks): 12.5% | Anxiety, patients ([1]; human, in vivo, 6 weeks): 2.1% | Any adverse event, patients ([1]; human, in vivo, 6 weeks): 64.6% | Decreased appetite, patients ([1]; human, in vivo, 6 weeks): 8.3% | Dizziness, patients ([1]; human, in vivo, 6 weeks): 4.2% | Dry mouth, patients ([1]; human, in vivo, 6 weeks): 8.3% | Nausea, patients ([1]; human, in vivo, 6 weeks): 12.5% | Serious adverse event, patients ([1]; human, in vivo, 6 weeks): 0.0% | Severe adverse event, patients ([1]; human, in vivo, 6 weeks): 2.1% | CGI-S score, change from baseline, LS mean ([1]; overall, weeks 1-6): −1.0 | MADRS-6 score, change from baseline, LS mean ([1]; overall, weeks 1-6): −6.6 points | QIDS-SR, LS mean change from baseline ([1]; overall, weeks 1-6): −4.8 | Patients with positive response on item 1 of the C-SSRS (wish to be dead) ([1]; week 1): five | CGI-S score, change from baseline, LS mean ([1]; week 2): −0.9 | Clinical response (≥50% decrease in MADRS score from baseline), patients ([1]; week 2): 27.0% | MADRS total score, change from baseline, LS mean ([1]; week 2): −7.8 points | MADRS-6 score, change from baseline, LS mean ([1]; week 2): −6.0 | Remission (MADRS score ≤10), patients ([1]; week 2): 2.7% and 3% | CGI-S score, change from baseline, LS mean ([1]; week 6): −1.5 | Clinical response (≥50% decrease in MADRS score from baseline), patients ([1]; week 6): 40.5% | MADRS total score, change from baseline, LS mean ([1]; week 6): −12.1 points | MADRS-6 score, change from baseline, LS mean ([1]; week 6): −8.7 | Patients with positive response on item 1 of the C-SSRS (wish to be dead) ([1]; week 6): one | Remission (MADRS score ≤10), patients ([1]; week 6): 16.2% | Remission on the QIDS-SR (score ≤5), patients ([1]; week 6): 21.6% | Reduction from baseline in MADRS total score ([1]; week 6, bupropion arm 210 mg/day): 12 points | Reduction from baseline in Hamilton Depression Rating Scale (HAM-D) score [2]: approximately 10 points | Remission rate, second line treatment following non-remission with an SSRI [3]: about 25%

COc1ccc2c(c1)[C@]13CCCC[C@@H]1[C@H](C2)N(C)CC3 [dextromethorphan]
Increase of mean elimination half-life vs dextromethorphan given without bupropion ([4]; 8 consecutive days of the subject combination, extensive metabolizers): approximately 3 fold | AUC0-12 decrease when administered with food ([4]; subject combination with food): 14% | Cmax change when administered with food ([4]; subject combination with food): unchanged

CN[C@H]1CC[C@@H](c2ccc(Cl)c(Cl)c2)c2ccccc21 [sertraline]
Remission rate, second line treatment following non-remission with an SSRI [3]: about 25%

COc1ccc(C(CN(C)C)C2(O)CCCCC2)cc1 (stereo not drawn) [venlafaxine]
Remission rate, second line treatment following non-remission with an SSRI [3]: about 25%

Reference: US20250177378A1, “TREATMENT OF DEPRESSION” (priority 2022, published 2025)
